Laboratory results taken from patent publication US20250195474A1, “Piezo Inhibition for Wound Healing” (priority 2022, published 2025).

Tests used:
mouse adipocytes = experiment: Mouse adipocyte-populated collagen I hydrogels with or without mechanical stretch; details: 10% equibiaxial strain, 7 days; GsMTx4 500 nM, D-GsMTx4 500 nM, PF573228 10 uM, Verteporfin 300 nM
human adipocytes [1] = experiment: Human adipocyte-populated collagen I hydrogels with or without mechanical stretch
human adipocytes [2] = experiment: Calcium imaging of hydrogel-bound adipocytes (Fluo-4 AM); format: cell-based; details: stretched human adipocytes
Description: Calcium imaging was used to determine in vitro Ca^2+ flow in hydrogel-bound adipocytes with or without mechanical strain and with or without Piezo1 inhibitor treatment. A Fluo-4, AM cell permeant kit (ThermoFisher, Cat: F-14201) was used per the manufacturer's instructions. […] Imagej was used for image quantification.

dorsal excisional wounds [3] = experiment: Splinted dorsal excisional wounding with inhibitor injected at POD 0; format: in vivo, mouse
wounds [4] = experiment: Visium spatial transcriptomic analysis of wounds; format: in vivo, mouse
Protocol: Wound specimens were rapidly harvested and flash frozen in OCT. Using the Visium Tissue Optimization Slide and Reagent Kit, permeabilization time was optimized at a thickness at 10 μm per section and 37 minutes for mouse tissue. Following cryo-sectioning at −20 degrees onto gene expression slides the expression slide and reagent kit was used to produce sequencing libraries. The libraries were then sequences using NextSeq (Illumina). Following demultiplication the raw FASTQ files and histology images were processed by sample with the Space Ranger software for genome alignment. The raw spaceranger output files for each sample was then read into a Seurat class object in R using Seurat's Load10× function. Data was normalized using the SCT transform with default parameters. To ascertain the integration of our scRNAseq and Visium spatial analysis we employed the FindTransferAnchors( ) function from Seurat, which allowed the alignment of data using the two datasets. This cross-platform linkage is performed serially in an unconstrained and constrained fashion.

wounds [5] = experiment: CODEX spatial protein analysis of POD 14 wounds; format: in vivo, mouse; details: POD 14, vs PBS
Description: To spatially phenotype the pig specimens, we used Co-Detection by Indexing (CODEX), a novel assay in which markers are labeled with oligonucleotide-conjugated antibodies and iteratively imaged between cyclic additions and washouts of dye-labeled oligonucleotides. A custom CODEX panel was designed to assess wound cells within the tissue see Table 1). In brief, primary antibodies were individually barcoded and validated using the commercial supplier's protocols. OCT for mouse or paraffin blocks for human xenograft (n=3 per group) were sectioned at 8 μm thickness onto coverslips for CODEX antibody staining. Antigens were retrieved by standard citrate-EDTA processing prior to addition of CODEX antibodies. Using a CODEX-integrated Keyence BZ-X instrument (Akoya Biosciences) image acquisition was then performed. Using software from Akoya Biosciences the raw images were process, with cell segmentation, and rendering.
The CODEX was visualized using Akoya Biosciences Multiplex Analysis Viewer (MAV) in ImageJ. The resulting .fcs files were then concatenated in FlowJo and imported into the Monocle3 and STvEA R packages for further analysis. After debris removal, the processed UMAP manifold was analyzed through Monocle3 with a post-manifold threshold of >10,000 cells per cluster. Analysis of the protein staining patterns was then used to assign cell types. The cell interactions were then inferred using STvEA for cell types at >2.5% of total abundance at k=20 nearest neighbors to quantify cell spatial interactions, and differential interaction maps were generated using graph scores.

existing scars = experiment: Treatment of existing scars during remodeling (scar rescue); format: in vivo, mouse; details: treated at POD 30, 75 or 120, harvested one month later
Description: While wound re-epithelialization is complete relatively quickly (around 2 weeks), wounds continue to heal beneath the surface for months to years in a process known as scar remodeling. (Foster et al., 2021; Gurtner et al., 2008) Remodeling is the longest and least well understood phase of wound repair but is likely critical to ultimate outcomes. We postulated that ADFs could continue to play a role in scarring during the remodeling process; if this were the case, we wondered whether ADF activity could be targeted during wound remodeling, via P1i in existing, actively remodeling scars, to ultimately reduce scarring and drive regeneration (FIG. 6A,C). Thus, we administered P1i to existing scars at POD 30 (early remodeling period), POD 75 (mid-remodeling), and POD 120 (late remodeling), then harvested tissue one month later at POD 60, POD 105, and […] respectively (FIG. 6A, C).

dorsal excisional wounds [6] = details: POD 30; cited from earlier work
adipocytes = experiment: Adipocyte ablation with diphtheria toxin in wounded Adipoq Cre-ERT iDTR mice; format: in vivo, mouse
human fibroblasts = experiment: Human fibroblasts in 3D collagen gels with stretching; format: cell-based
Description: To further confirm that human cluster 3 represented a pro-regenerative ADF population we utilized our in vitro collagen gel system. We first, FACS sorted human fibroblasts based on expression of cluster 3 markers including ROBO2, CD29, and SFRP2 and seeded them into 3D collagen gels (FIG. 42B). […] In contrast, stretching with P1 inhibition kept the fibroblasts in a more adipocyte-like phenotype, with high expression of PPARg and low expression of Collagen Type I, similar to fibroblasts in an unstretched state (FIG. 42B).
To determine if P1i may activate […] Wnt pathways to maintain cluster 3 in an adipocyte-like phenotype, we applied Wnt5a recombinant protein to the in vitro collagen gel system (FIG. 42C). […] In summary, P1i treatment may revert fibroblasts towards the mechanically naïve fibroblast pro-regenerative fibroblast population through the activation of canonical Wnt pathways and thereby preventing the transition to pro-scarring phenotypes defined by CJUN and VCAM1 expression.

With CS(=O)(=O)c1cccc(CNc2nc(Nc3ccc4c(c3)CCC(=O)N4)ncc2C(F)(F)F)c1 [FAKi, PF573228] the “stretch-induced phenotypic switch (losing adiponectin, expressing Col1)” value (“stretch-induced phenotypic switch” below) (mouse adipocytes) was “abrogated”.

In the case of Clc1cccc(Cl)c1CSc1nnc(-c2cnccn2)s1 [Yoda1], the “adipocyte hypertrophy and conversion to fibroblasts” value (human adipocytes [1]; absence of applied stretch) is reported as “sufficient to drive adipocyte hypertrophy and conversion to fibroblasts”.

With D-GsMTx4 [P2i] the “calcium staining with stretching” value (human adipocytes [2]) was “decreased”, the “time to complete wound re-epithelialization” value (dorsal excisional wounds [3]; 30 uL of 0.2 mg/ml intradermal at wound edge, POD 0) was “did not significantly affect” and the “Oil Red O staining and IF for cytokeratins 14/19 (regenerating appendages)” value (dorsal excisional wounds [3]; POD 14) was “presence of putative regenerating sebaceous glands/HF”. The “adipocyte-derived fibroblasts (ADFs) in wounds” value (dorsal excisional wounds [3]; POD 14, FACS and histology) was “significantly reduced”, the “Col1 and α-SMA” value (dorsal excisional wounds [3]; POD 14 and POD 30) was “reduced” and the ECM density (dorsal excisional wounds [3]; POD 14 and POD 30) was “less dense”. The hair follicle formation (dorsal excisional wounds [3]; POD 30) was “allowed for hair follicle formation”, the “differential interaction maps (Visium)” value (wounds [4]; POD 14) was “strong interactions between adipocytes and fibroblasts” and the “fibroblast scRNA-seq cluster 0 (mechanically sensitive) spatial enrichment” value (wounds [4]; POD 14) was “highly enriched in PBS-treated POD 14 wounds compared to P1i or P2i treated wounds”. For the same molecule, the “fibroblast scRNA-seq cluster 5 (mechanically naive) spatial presence” value (wounds [4]; POD 14) was “observed”, the “spatially variable features (gene expression)” value (wounds [4]; POD 14) was “high expression of markers associated with the epidermis including Krt1 and Krt14” and the “adipocyte and epithelial cells in the spatial environment” value (wounds [4]; POD 14, vs PBS) was “enriched”. The “individual adipocyte-fibroblast subpopulation interactions (CODEX)” value (wounds [5]) was “enhanced interactions between mechanically naïve subpopulations including adipocyte cluster 1 and fibroblast clusters 2 and 4”, the “stretch-induced phenotypic switch” value (mouse adipocytes) was “abrogated” and the “stretch-induced hypertrophy of human adipocytes” value (human adipocytes [1]; 10% equibiaxial strain, 7 days) was “reversed”.

For Verteporfin [YAPi], the “wound regeneration in existing scars” value (existing scars) is listed as “did not induce regeneration”, the “hair regrowth (previous study, Mascharak et al., 2021a)” value (dorsal excisional wounds [6]) is listed as “allow for hair regrowth” and the “stretch-induced phenotypic switch” value (mouse adipocytes) is listed as “abrogated”.

In the case of diphtheria toxin [DT], the “subdermal fat and GFP+ cells (efficacy of ablation)” value (adipocytes; 200 ng intradermal daily over 3 days, unwounded skin and POD 14 wounds) is reported as “minimal to no subdermal fat and no GFP^+ cells in wounds”, the ECM ultrastructure (adipocytes; POD 14) is reported as “less scar-like and more closely resembled unwounded skin” and the “Col1 and α-SMA content” value (adipocytes; POD 14, vs PBS control scars) is reported as “decreased”. For the same molecule, the ECM density (adipocytes; POD 14, vs PBS control scars) was “less dense” and the dermal thickness (adipocytes; POD 14, vs PBS control scars) was “significantly reduced”.

B1: Wnt5a recombinant protein: Wnt5a recombinant protein applied to the in vitro collagen gel system (protein, UniProt P41221 62-380, looked up)
Protein Wnt-5a: IIGAQPLCSQLAGLSQGQKKLCHLYQDHMQYIGEGAKTGIKECQYQFRHRRWNCSTVDNTSVFGRVMQIGSRETAFTYAVSAAGVVNAMSRACREGELSTCGCSRAARPKDLPRDWLWGGCGDNIDYGYRFAKEFVDARERERIHAKGSYESARILMNLHNNEAGRRTVYNLADVACKCHGVSGSCSLKTCWLQLADFRKVGDALKEKYDSAAAMRLNSRGKLVQVNSRFNSPTTQDLVYIDPSPDYCVRNESTGSLGTQGRLCNKTSEGMDGCELMCCGRGYDQFKTVQTERCHCKFHWCCYVKCKKCTEIVDQFVCK
In the case of B1, the “phenotype of human fibroblasts (PPARg, Collagen Type 1)” value (human fibroblasts) is reported as “a more adipocyte like phenotype with high expression of PPARg and low expression of Collagen Type 1”.
